Literature values as cited in patent publication US4535248A, “Method for detecting aflatoxin in almonds” (priority 1984, dated 1985).

Test system: rats
Details: for estimated effective dose, hepatocarcinogens (for comparison): similar estimates for other hepatocarcinogens

SMILES | estimated effective dose, hepatocarcinogens (for comparison) | effective dose for the induction of liver tumors (rat, in vivo)
CN(C)N=O [dimethylnitrosamine] | 750 mg/day | 
CN(C)c1ccc(N=Nc2ccccc2)cc1 [butteryellow] | 9,000 mg/day | 
COc1cc2c(c3oc(=O)c4c(c13)CCC4=O)[C@@H]1C=CO[C@@H]1O2 [B1] |  | approximately 10 mg per day
